Series [1] concerns the target T1, Platelet-activating factor acetylhydrolase (Homo sapiens, UniProt Q13093).
T1 sequence (Q13093 whole entry): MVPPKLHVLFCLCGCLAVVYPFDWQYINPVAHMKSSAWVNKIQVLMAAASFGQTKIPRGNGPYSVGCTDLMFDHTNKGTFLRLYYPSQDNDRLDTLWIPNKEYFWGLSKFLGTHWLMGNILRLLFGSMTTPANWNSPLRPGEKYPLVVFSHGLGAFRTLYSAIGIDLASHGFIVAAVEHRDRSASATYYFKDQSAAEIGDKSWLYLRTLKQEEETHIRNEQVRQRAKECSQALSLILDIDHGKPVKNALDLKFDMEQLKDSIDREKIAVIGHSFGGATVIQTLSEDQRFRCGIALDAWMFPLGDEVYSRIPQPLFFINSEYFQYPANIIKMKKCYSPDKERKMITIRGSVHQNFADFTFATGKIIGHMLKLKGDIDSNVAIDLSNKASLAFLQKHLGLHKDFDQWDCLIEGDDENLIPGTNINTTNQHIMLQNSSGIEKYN
Put plainly: Inhibitory activity against recombinant human Lp-PLA2.

Series [2] is described as follows: Permeability was determined. It counts as ADME. The following applies: not told; read-out: Permeability (converted).
In another series the target is Cytochrome P450 2D6 (Homo sapiens, UniProt P10635). As to the kind of experiment: Inhibitory activity against Cytochrome P450 2D6. It counts as ADME.
The target of another series is Cytochrome P450 3A4 (Homo sapiens, UniProt P08684). As to the kind of experiment: Inhibitory activity against CYP450 3A4 isozyme. It counts as ADME.
Series [3] is described as follows: Permeability in plasma. The series is classed as ADME, cell-free. The following applies: not told; read-out: Permeability (converted).
The nature of series [4]: Oral bioavailability in fed rat. The series is classed as ADME, organism-based. The conditions noted are these: in vivo.
For series [5], the species on record is Homo sapiens. As to the kind of experiment: Inhibitory concentration against monocyte chemotaxis.
Series [6] is described as follows: Oral bioavailability in fasted rat. The series is classed as ADME, organism-based. The conditions noted are these: in vivo.
A short description of series [7]: Oral bioavailability in dog. The conditions noted are these: in vivo. It counts as ADME, organism-based, Canis lupus familiaris.
The species named for series [8] is Homo sapiens. As to the kind of experiment: Inhibitory concentration against lyso-PtdCho production in human LDL.

Chain of Cytochrome P450 2D6 (P10635 whole entry): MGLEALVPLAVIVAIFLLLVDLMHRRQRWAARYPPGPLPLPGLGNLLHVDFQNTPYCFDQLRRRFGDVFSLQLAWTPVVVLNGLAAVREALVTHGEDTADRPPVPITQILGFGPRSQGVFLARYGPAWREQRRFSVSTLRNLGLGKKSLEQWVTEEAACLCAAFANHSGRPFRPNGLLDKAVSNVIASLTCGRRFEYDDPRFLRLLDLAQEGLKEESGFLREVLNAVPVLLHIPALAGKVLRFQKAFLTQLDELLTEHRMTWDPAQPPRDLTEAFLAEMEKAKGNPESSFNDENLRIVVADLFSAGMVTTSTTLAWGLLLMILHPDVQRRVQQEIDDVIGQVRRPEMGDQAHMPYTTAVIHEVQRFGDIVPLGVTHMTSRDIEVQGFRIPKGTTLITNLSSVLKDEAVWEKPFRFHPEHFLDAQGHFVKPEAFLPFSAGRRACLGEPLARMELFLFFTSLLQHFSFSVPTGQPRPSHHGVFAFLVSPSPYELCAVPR
Chain of Cytochrome P450 3A4 (P08684 whole entry): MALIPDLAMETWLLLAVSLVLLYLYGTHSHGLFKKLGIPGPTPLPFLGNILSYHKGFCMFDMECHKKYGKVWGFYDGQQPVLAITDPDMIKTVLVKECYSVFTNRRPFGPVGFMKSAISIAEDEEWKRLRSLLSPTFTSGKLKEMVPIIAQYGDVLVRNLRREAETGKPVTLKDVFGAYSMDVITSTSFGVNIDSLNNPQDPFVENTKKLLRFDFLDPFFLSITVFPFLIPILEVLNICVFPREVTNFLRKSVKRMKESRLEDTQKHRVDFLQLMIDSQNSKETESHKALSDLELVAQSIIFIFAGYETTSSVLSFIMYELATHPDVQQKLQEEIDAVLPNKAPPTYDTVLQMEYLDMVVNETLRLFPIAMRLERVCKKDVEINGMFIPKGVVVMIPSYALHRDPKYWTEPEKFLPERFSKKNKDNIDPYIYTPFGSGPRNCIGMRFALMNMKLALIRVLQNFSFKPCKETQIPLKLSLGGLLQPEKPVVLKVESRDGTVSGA

Take `CCN(CC)CCN(Cc1ccc(-c2ccc(C(F)(F)F)cc2)cc1)C(=O)Cn1cc(CO)c(=O)nc1SCc1ccc(F)cc1`: the IC50 in series [1] was determined as 0.0015 µM. Besides, in series [2], the Papp was 0.556 ×10⁻⁶ cm/s.

`CCN(CC)CCN(Cc1ccc(-c2ccc(Cl)cc2)cc1)C(=O)Cn1cc(C)c(=O)nc1SCc1ccc(F)cc1`: the IC50 amounted to 15 µM against Cytochrome P450 2D6 and 13 µM against Cytochrome P450 3A4. Moreover, the Papp in series [2] was 27.8 ×10⁻⁶ cm/s.

For `CCN(CC)CCN(Cc1ccc(-c2ccc(C(F)(F)F)cc2)cc1)C(=O)Cn1c(SCc2ccc(F)cc2)nc(=O)c(C)c1C`, the Papp in series [3] is 8.33 ×10⁻⁶ cm/s. Moreover, the IC50 at Cytochrome P450 2D6 came to 24 µM; against Cytochrome P450 3A4, 22 µM.

For the molecule `CCc1cn(CC(=O)N(CCN(CC)CC)Cc2ccc(-c3ccc(C(F)(F)F)cc3)cc2)c(SCc2ccc(F)cc2)nc1=O`, the IC50 in series [1] is 0.0004 µM; at Cytochrome P450 2D6, 24 µM; on Cytochrome P450 3A4, 11 µM. In [2], the Papp was 27.8 ×10⁻⁶ cm/s.

Take `CCN(CC)CCN(Cc1ccc(-c2ccc(Cl)cc2)cc1)C(=O)Cn1c(SCc2ccc(F)cc2)nc(=O)c2c1CCCC2`: the IC50 in series [1] was 0.00025 µM; on Cytochrome P450 2D6 it was 6 µM; against Cytochrome P450 3A4, 5 µM.

Regarding `CCN(CC)CCN(Cc1ccc(-c2ccc(C(F)(F)F)cc2)cc1)C(=O)Cn1cc(CCNS(C)(=O)=O)c(=O)nc1SCc1ccc(F)cc1`, the Papp in [3] is 1.39 ×10⁻⁶ cm/s. For the same molecule, the IC50 in series [1] was determined as 0.001 µM.

`CCN(CC)CCN(Cc1ccc(-c2ccc(C(F)(F)F)cc2)cc1)C(=O)Cn1cc(SC)c(=O)nc1SCc1ccc(F)cc1`: the results for the IC50 (in series [1]; at Cytochrome P450 2D6; against Cytochrome P450 3A4) were 0.0008 µM, 39 µM and 15 µM, respectively. Moreover, in series [2], the Papp was 8.33 ×10⁻⁶ cm/s.

For the molecule `CCN(CC)CCN(Cc1ccc(-c2ccc(C(F)(F)F)cc2)cc1)C(=O)Cn1cc(CCNC(C)=O)c(=O)nc1SCc1ccc(F)cc1`, the Papp in [3] was 0.833 ×10⁻⁶ cm/s. For the same molecule, the IC50 in series [1] was 0.006 µM.

Consider `CCc1cn(CC(=O)N(CCN(CC)CC)Cc2ccc(-c3ccc(Cl)cc3)cc2)c(SCc2ccc(F)cc2)nc1=O`, for which the 50% inhibitory concentration (IC50) against Cytochrome P450 2D6 stood at 14 µM; against Cytochrome P450 3A4 it was 7 µM. Besides, the Papp in series [2] is 33.3 ×10⁻⁶ cm/s.

In the case of `CCN(CC)CCN(Cc1ccc(-c2ccc(C(F)(F)F)cc2)cc1)C(=O)Cn1c(SCc2ccc(F)cc2)nc(=O)c2c1CCCC2`, in series [3], the Papp is 16.7 ×10⁻⁶ cm/s. Moreover, the values for the IC50 (in series [1]; at Cytochrome P450 2D6; against Cytochrome P450 3A4) were 0.0001 µM, 9 µM and 10 µM, respectively.

As for `CCN(CC)CCN(Cc1ccc(-c2ccc(C(F)(F)F)cc2)cc1)C(=O)Cn1cc(CCO)c(=O)nc1SCc1ccc(F)cc1`, the Papp in series [2] was 0.833 ×10⁻⁶ cm/s.

In the case of `CCN(CC)CCN(Cc1ccc(-c2ccc(C(F)(F)F)cc2)cc1)C(=O)Cn1cc(OC)c(=O)nc1SCc1ccc(F)cc1`, the Papp in [2] is 6.94 ×10⁻⁶ cm/s.

With `CCN(CC)CCN(Cc1ccc(-c2ccc(Cl)cc2)cc1)C(=O)Cn1c(SCc2ccc(F)cc2)nc(=O)c2c1CCC2`, the Papp in series [3] is 38.9 ×10⁻⁶ cm/s. The IC50 in [1] is 0.0004 µM; on Cytochrome P450 2D6, 25 µM; at Cytochrome P450 3A4, 18 µM.

On to `CCN(CC)CCN(Cc1ccc(-c2ccc(C(F)(F)F)cc2)cc1)C(=O)Cn1cc(Cl)c(=O)nc1SCc1ccc(F)cc1`, for which the IC50 in [1] was 0.003 µM; against Cytochrome P450 2D6 it was 83 µM; on Cytochrome P450 3A4, 29 µM. In addition, in [2], the Papp is 30.6 ×10⁻⁶ cm/s.

As to `CCCc1cn(CC(=O)N(CCN(CC)CC)Cc2ccc(-c3ccc(C(F)(F)F)cc3)cc2)c(SCc2ccc(F)cc2)nc1=O`, the IC50 in series [1] was 0.0008 µM; at Cytochrome P450 2D6 it was 22 µM; on Cytochrome P450 3A4, 5 µM. Further, in [2], the Papp was 36.1 ×10⁻⁶ cm/s.

Take `CCN(CC)CCN(Cc1ccc(-c2ccc(C(F)(F)F)cc2)cc1)C(=O)Cn1cc([S+](C)[O-])c(=O)nc1SCc1ccc(F)cc1` (stereo unspecified): the IC50 in [1] stood at 0.0008 µM. Further, the Papp in series [2] is 1.67 ×10⁻⁶ cm/s.

For `CCN(CC)CCN(Cc1ccc(-c2ccc(C(F)(F)F)cc2)cc1)C(=O)Cn1cc(C)c(=O)nc1SCc1ccc(F)cc1`, the IC50 stood at 0.001 µM in series [1], 39 µM on Cytochrome P450 2D6 and 17 µM against Cytochrome P450 3A4. Besides, the Papp in series [2] was 22.2 ×10⁻⁶ cm/s.

The molecule `CCN(CC)CCN(Cc1ccc(-c2ccc(C(F)(F)F)cc2)cc1)C(=O)Cn1cc(Cc2cnn(C)c2)c(=O)nc1SCc1ccc(F)cc1` gave a bioavailability in series [4] of 2%.

In the case of `CCN(CC)CCN(Cc1ccc(-c2ccc(C(F)(F)F)cc2)cc1)C(=O)Cn1c(SCc2ccc(F)cc2)nc(=O)c2c1CCC2` [DARAPLADIB], the values for the IC50 in the series filed under Homo sapiens [5], against Cytochrome P450 2D6 and in the series filed under Homo sapiens [8] were 4 µM, 26 µM and 4 µM, respectively. In addition, the Papp in [3] was 27.8 ×10⁻⁶ cm/s. For the same molecule, the values for the bioavailability in series [4], in [6] and in [7] were 11%, roughly 21% and 28%, respectively.

As to `CCN(CC)CCN(Cc1ccc(-c2ccc(C(F)(F)F)cc2)cc1)C(=O)Cn1cc(CCN)c(=O)nc1SCc1ccc(F)cc1`, the half-maximal inhibitory concentration (IC50) in [1] was found to be 0.038 µM.

For `CCN(CC)CCN(Cc1ccc(-c2ccc(C(F)(F)F)cc2)cc1)C(=O)Cn1cc(Br)c(=O)nc1SCc1ccc(F)cc1`, the results for the 50% inhibitory concentration (IC50) (in series [1]; on Cytochrome P450 2D6; at Cytochrome P450 3A4) were 0.001 µM, 56 µM and 39 µM, respectively. Moreover, the Papp in series [2] was 25 ×10⁻⁶ cm/s.

Turning to `CCN(CC)CCN(Cc1ccc(-c2ccc(C(F)(F)F)cc2)cc1)C(=O)Cn1c(C)cc(=O)nc1SCc1ccc(F)cc1`, the Papp in series [3] was 13.9 ×10⁻⁶ cm/s. For the same molecule, the IC50 against Cytochrome P450 2D6 is 47 µM; on Cytochrome P450 3A4, 22 µM.

(Values after ChEMBL document CHEMBL1136645, “The identification of clinical candidate SB-480848: a potent inhibitor of lipoprotein-associated phospholipase A2” (Bioorg Med Chem Lett, 2003).)
